These results are taken from ChEMBL document CHEMBL3832080, “DailyMed|setid=f3c5895f-f54b-43d4-9b38-7bfbdf8335b7 | CEFOTAXIME - cefotaxime injection, powder, for solution|WOCKHARDT USA LLC”.

Series [1] can be described thus: (§1) Pharmacokinetics parameters for Cefotaxine evaluated after single IV or intramuscular (IM) administration of Cefotaxine to normal volunteers. The format is ADME, organism-based. Also on record: dose 1 g, dose 500 mg, dose 2 g, route iv, route im. Conditions: human, in vivo, regimen Single dose.
The test system of the next series is Homo sapiens. Described as §1. The format is ADME, organism-based. Also on record: dose 1 g, dose 500 mg, dose 2 g, route iv, route im. Particulars: in vivo, im, dose 500 mg, dosed compound id 59, dosed compound name CEFOTAXIME, regimen Single dose, tissue Serum.
[2] abbreviates: dose 1 g, dosed compound id 59, dosed compound name CEFOTAXIME, route im, tissue Serum.

With `CO/N=C(\C(=O)N[C@@H]1C(=O)N2C(C(=O)[O-])=C(COC(C)=O)CS[C@H]12)c1csc(N)n1.[Na+]` [CEFOTAXIME SODIUM], the half-life (in general, how long it takes for the measured level to halve) in series [1] (dose 50 mg/kg, dosed compound id 59, dosed compound name CEFOTAXIME, route iv, study dosing duration 10 to 15 minutes, tissue Urine) is 4.6 h. In addition, in series [1] (setting [2]), the Tmax (commonly the time from dosing to the highest level) is 0.5 h and the half-life was 1 h. Further, the dose excreted in series [1] (dosed compound id 590, dosed compound name 14C-CEFOTAXIME, route iv, tissue Urine, read-out: Excretion) was 20 to 36%. For the same compound, in the series with Homo sapiens, the time of peak concentration (Tmax) was determined as 0.5 h and the t1/2 is 1 h.
